Here are results for three molecules from ChEMBL document CHEMBL1201862, “PubChem BioAssay data set” (2004).

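All cell lines were grown in 96-well plates and treated with compound for 48 hours. GI50: concentration for 50% inhibition of growth.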 Activity calls are given as the source filed them. Cut-off read from the data, not from the text of the source: active = GI50 up to about 1.1 µM and inactive = higher.

Test systems include DLD-1; UACC-257; MOLT-4; SR; HOP-18; SNB-75; OVCAR-3; NCI-H226; NCI/ADR-RES; HCT-116; NCI-H460; TK-10; SN12C; HOP-62; 786-0; KM12; NCI-H23; M14; HT-29; UO-31.
Common to all, as to test: NCI anticancer screen, dose series, 48 h

Turning to `C=CC(=O)c1ccc2c(c1)OCCOCCOCCOCCOCCO2`, the GI50 was 16.4 µM (inactive) with DLD-1; 19.1 µM (inactive) in the test on UACC-257; 38.1 µM (inactive) with MOLT-4; > 100 µM (inactive) in the test with SR; 16.1 µM (inactive) with HOP-18; > 49.3 µM (inactive) with SNB-75. The GI50 is 19.7 µM (inactive) in the test with OVCAR-3; > 100 µM (inactive) in the test on NCI-H226; 25.3 µM (inactive) in the test on NCI/ADR-RES; 25.9 µM (inactive) in the test with HCT-116; > 100 µM (inactive) in the test on NCI-H460; 17 µM (inactive) in the test on TK-10. The GI50 in the test with SN12C is 23.8 µM (inactive); in the test with HOP-62, > 100 µM (inactive); in the test with 786-0 it was 16.1 µM (inactive); in the test with KM12, > 100 µM (inactive); in the test with NCI-H23, > 44.4 µM (inactive); in the test with M14, 20.3 µM (inactive). Further, the GI50 was 28.9 µM (inactive) in the test on HT-29 and 26.2 µM (inactive) in the test on UO-31.

Turning to `CCN(CC)Cc1c(/C=C\c2cc(OC)c(OC)c(OC)c2)ccc(OC)c1O`, the GI50 is 4.09 µM (inactive) with DLD-1; 16.8 µM (inactive) with UACC-257; 15.3 µM (inactive) in the test with MOLT-4; > 100 µM (inactive) in the test with HOP-18; 1.84 µM (inactive) in the test on SNB-75; 2.08 µM (inactive) in the test on OVCAR-3. Further, the GI50 was 3.67 µM (inactive) in the test with NCI-H226; 2.16 µM (inactive) in the test with NCI/ADR-RES; 3.33 µM (inactive) with HCT-116; 3.48 µM (inactive) in the test on NCI-H460; 9.4 µM (inactive) with TK-10; 5.3 µM (inactive) in the test with SN12C. The GI50 is 5.02 µM (inactive) in the test on HOP-62; 3.83 µM (inactive) in the test with 786-0; 1.69 µM (inactive) with KM12; 2.97 µM (inactive) in the test with NCI-H23; 2.79 µM (inactive) in the test on M14; 2.76 µM (inactive) in the test on HT-29. For the same molecule, the GI50 in the test on UO-31 was 6.14 µM (inactive).

For `CN[C@@H]1C[C@H]2O[C@@](C)([C@@H]1OC)n1c3ccccc3c3c4c(c5c6ccccc6n2c5c31)C(=O)N[C@@H]4O`, the GI50 is 0.149 µM (active) in the test with DLD-1; 0.0603 µM (active) with UACC-257; 0.0259 µM (active) with MOLT-4; 0.0132 µM (active) in the test with SR; 0.01 µM (active) with HOP-18; < 0.0121 µM (active) in the test with SNB-75. For the same molecule, the GI50 is 0.043 µM (active) in the test with OVCAR-3; 0.0194 µM (active) in the test with NCI-H226; 0.0395 µM (active) in the test on NCI/ADR-RES; 0.144 µM (active) with HCT-116; 0.04 µM (active) in the test on NCI-H460; 0.0208 µM (active) with SN12C. The GI50 in the test on HOP-62 was < 0.0134 µM (active); in the test on 786-0 it was 0.0266 µM (active); in the test with KM12, 0.0328 µM (active); in the test with NCI-H23, 0.0338 µM (active); in the test with M14, 0.0255 µM (active); in the test on HT-29, 0.125 µM (active). Besides, the GI50 in the test with UO-31 was < 0.0151 µM (active).
